According to US5639726A, “Peptide mediated enhancement of thrombolysis methods and compositions” (The Regents of the University of Michigan, priority 1994, dated 1997):
Ends that are not written are not given here.

How the values were obtained:
[1] = molecular target: T1, vitronectin-bound PAI-1 (Homo sapiens, UniProt P05121); assay: PAI-1 activity assay in the presence of vitronectin; assay type: biochemical; conditions: for T1/2 of vitronectin-bound PAI-1: PAI-1 0.7 μM with vitronectin 1.7 μM, 37° C., 190±12 minutes without peptide
T1 construct: made in house; host or cells: E. coli (PAI-1); vitronectin a gift
T1 sequence (P05121 24-402): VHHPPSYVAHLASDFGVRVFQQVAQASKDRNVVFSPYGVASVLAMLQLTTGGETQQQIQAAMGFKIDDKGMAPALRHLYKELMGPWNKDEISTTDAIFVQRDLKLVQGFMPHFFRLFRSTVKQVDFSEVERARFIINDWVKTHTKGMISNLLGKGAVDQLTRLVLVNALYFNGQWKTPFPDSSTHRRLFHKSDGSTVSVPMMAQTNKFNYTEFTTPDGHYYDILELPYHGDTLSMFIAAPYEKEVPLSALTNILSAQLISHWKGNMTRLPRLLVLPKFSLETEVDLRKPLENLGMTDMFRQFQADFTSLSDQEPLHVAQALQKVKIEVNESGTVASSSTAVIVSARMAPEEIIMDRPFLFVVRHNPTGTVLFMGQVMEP
Description: PAI-1 (0.7 μM) was incubated at 37° C. with either P1-P14 peptide or control peptide (55 μM) in 0.1M HEPES, 0.1M NACl, 0.1% PEG (MW 8000), pH 7.4 (assay buffer). At timed intervals 0-110 minutes), 5 μL of the PAI-1:peptide mixture was added to 96 well microtiter plates containing 45 μL of t-PA (0.03 μM in assay buffer), then incubated for 30 minutes at 37° C. Spectrozyme t-PA (final concentration of 150 μM) was added to yield a final reaction volume of 70 μL, and 30 minutes later the absorbance at 405 nm was determined in a THERMO-max (Molecular Devices, Palo Alto, Calif.) microplate reader. 100% PAI-1 activity was defined as activity observed at time zero, while 0% PAI-1 activity was defined as that observed in the absence of PAI-1. A standard t-PA activity curve, derived from absorbance values of varying concentrations of t-PA incubated in the absence of PAI-1, was used to determine PAI-1 activity.
Since vitronectin binds and stabilizes the active conformation of PAI-1, the capacity of the Thr-Val-Ala-Ser-Ser-Ser-Thr-Ala-Val-Ile-Val-Ser-Ala-Arg (SEQ ID NO: 1) to inactivate vitronectin-bound PAI-1 was examined. PAI-1 (0.7 μM) was incubated with vitronectin (1.7 μM) for 30 minutes at 37° C., then Thr-Val-Ala-Ser -Ser-Ser-Thr-Ala-Val-Ile-Val-Ser-Ala-Arg (SEQ ID NO: 1) or control peptide (55 μM) was added, and the PAI-1 T1/2 was determined. In the presence of vitronectin, the T1/2 of PAI-1 was prolonged approximately 2-fold (98±18 to 190±12 minutes), similar to previous reports (Declerck et al. 1988).

[2] = molecular target: T2, PAI-1 (Homo sapiens, UniProt P05121); assay: Kinetics of peptide annealing: residual PAI inhibitory activity assayed with β-trypsin and S-2222; assay type: biochemical; conditions: peptide 5.5 mM; 25° C.
T2 construct: made in house; host or cells: E. coli (vector pET3a)
T2 sequence (P05121 24-402): as above
Description: PAI-1 (6.4 μM) was incubated with increasing concentrations of each peptide at 23° C. and the (T1/2) of PAI-1 inactivation was determined by measuring the PAI-1 activity remaining over time.
Peptides were dissolved in 1 mM HCl+1% TWEEN-80 (the three PAI peptides) (SEQ ID NOS: 1-3), or in 0.1M HEPES (SEQ ID NOS: 4-5), 0.1M NaCl, 0.1% PEG-8000, pH […] (the two consensus peptides). Peptides were annealed to active PAI by incubation of active PAI in 0.1M HEPES, 0.1M NaCl, 0.1% PEG-8000, pH 7.4 with a peptide in its solvent. Ten percent of the final incubation mixture consisted of the peptide solvent. Incubation was carried out at 25° C. until no PAI inhibitory activity remained as determined by kinetics rate assays with trypsin, described below. The final concentration of PAI in the incubation mixture was either 0.9 μM (for kinetics assays) or 6.3 μM (for gels and purification). The peptide concentrations varied greatly due to the individual solubilities and rates of insertion of each peptide. These concentrations are given in the legends of the appropriate figures.
During annealing of 0.9 μM PAI with a peptide, the residual inhibitory activity of PAI was measured after varying incubation times by assaying an aliquot of the sample with β-trypsin. Trypsin (1 nM final concentration) was added to the chromogenic substrate S-2222 (950 μM) with 27 nM PAI sample. The absorbance at 405 nm was measured continuously for at least 12.5 min in a Shimadzu UV-265 UV-visible spectrophotometer. The pseudo-first order rate constant of trypsin is an indirect measure of the amount of PAI that has lost inhibitory activity due either to annealing or to becoming latent. The rate constant of controls containing the peptide solvent but no peptide was subtracted from that of the experimental assays in order to correct for the effect of the simultaneous change of PAI from the active to the latent state.

[3] = tested on: platelet-rich clots; assay: In vitro clot lysis assay, platelet-rich clots; assay type: biochemical, human
Description: Blood samples were collected by peripheral venipuncture from normal subjects into acid-citrate-dextrose anticoagulant (0.8% w/v citric acid, 2.2% trisodium citrate, 2.45% dextrose) at a ratio of 6 volumes of blood to 1 volume of anticoagulant. Donors had not consumed aspirin for at least 7 days prior to phlebotomy. Washed platelets were prepared by repeated centrifugation as previously described (Fay et al., 1994), then resuspended in Tyrode's buffer (137 mM NACl, 2.68 mM KCl, 2 mM CaCl2, 1 mM MgCl2, 0.36 mM NaH2 PO4, 11.9 mM NaHCO3, 5 mM HEPES, 0.1% glucose, 0.35% bovine serum albumin, pH 7.35). Clot lysis assays were performed as previously described (Fay et al., 1994). […] The fluorescence of this dilution was measured and % clot lysis was calculated, as previously described (Fay et al., 1994). […] The capacity of P1-P14 peptide to accelerate fibrinolysis in vitro, both in the absence and presence of platelets was also evaluated. […] After 30 min at 37° C., fibrinolysis was initiated by the addition of t-PA (20 nM), and % clot lysis was determined 60 min later. […]

## Ac-TVASSSTAVIVSAR [SEQ ID NO: 1, Thr-Val-Ala-Ser-Ser-Ser-Thr-Ala-Val-Ile-Val-Ser-Ala-Arg]
[1]; peptide 55 μM
  T1/2 of vitronectin-bound PAI-1: about 120 minutes
  fold decrease of the half-life of vitronectin-bound PAI-1: 1.6 fold
[1]; peptide 55 μM, listed as P1-P14 peptide
  T1/2 of vitronectin-bound PAI-1: only slowly inactivated
[1]; from approximately 190 to about 120 minutes
  decrease of the half-life of PAI-1 in the presence of vitronectin: ~40%
[2]
  k: .014 M⁻¹ s⁻¹
[3]; 70 μM peptide
  tPA induced platelet rich clot lysis: significant enhancement
[3]; 2.5×10^8 platelets/mL, t-PA 75 pM, 8±3% without peptide
  lysis of platelet-rich clots at 90 minutes: 41±12%
